#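 Five compound concentrations were applied to cells in 96-well plates for 48 hours; endpoints were derived by simple linear interpolation of the resulting dose-response curve. At the TGI there is no net growth.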
# Key:
# Test in all cases: NCI anticancer screen, dose series, 48 h
# [1] = test system: MALME-3M melanoma
# [2] = test system: HCT-116 colon
# [3] = test system: UACC-257 melanoma
# [4] = test system: HL-60(TB) leukemia
# [5] = test system: OVCAR-4 ovarian
# [6] = test system: EKVX NSCLC
# [7] = test system: PC-3 prostate
# [8] = test system: MDA-N
# [9] = test system: SN12C renal
# [10] = test system: RXF 393 renal
SMILES,TGI [1],TGI [2],TGI [3],TGI [4],TGI [5],TGI [6],TGI [7],TGI [8],TGI [9],TGI [10]
N=c1c2c(=S)n(-c3ccccc3)c(=S)n(-c3ccccc3)c2nc(SCCN2CCCC2)n1-c1ccccc1,3.87 µM,4.43 µM,3.06 µM,0.88 µM,7.58 µM,7.23 µM,3.3 µM,4.36 µM,3.46 µM,2.94 µM
CN(C)c1ccc(/C=C(\NC(=O)c2ccccc2)C2=NC(CCC(=O)O)C(=O)O2)cc1 (stereo not drawn),> 50 µM,> 50 µM,> 50 µM,> 50 µM,> 50 µM,> 50 µM,> 50 µM,> 50 µM,> 50 µM,> 50 µM
C=CCN(CCNS(=O)(=O)c1ccc(C)cc1)S(=O)(=O)c1ccc(C)cc1,> 100 µM,> 100 µM,> 100 µM,47.6 µM,> 100 µM,96.9 µM,> 100 µM,> 100 µM,> 100 µM,> 100 µM
CC(C)=CCc1[nH]c2ccccc2c1C1=C(O)C(=O)C(c2c(CC=C(C)C)[nH]c3ccccc23)=C(O)C1=O,4.5 µM,3.78 µM,6.95 µM,5.6 µM,93.1 µM,7.59 µM,4.72 µM,11.5 µM,4.79 µM,8.17 µM
CCOC(=O)NC(OC)(C(F)(F)F)C(F)(F)F,> 100 µM,> 100 µM,> 100 µM,> 100 µM,> 100 µM,> 100 µM,> 100 µM,> 100 µM,–,> 100 µM
CC(=O)Nc1c(S(=O)(=O)c2ccccc2)c(C)c(C)n1Cc1ccccc1,> 100 µM,> 100 µM,> 100 µM,> 100 µM,> 100 µM,> 100 µM,> 100 µM,> 100 µM,> 100 µM,> 100 µM
COC(=O)c1c(O)ccc2[nH]c3c(O)c4ccccc4cc3c12,51.9 µM,47 µM,94.5 µM,37.5 µM,78.4 µM,39.6 µM,> 100 µM,65 µM,> 100 µM,> 100 µM
Cc1ccc(-c2nc(N/N=C/c3ccc(O)cc3)c3ccccc3n2)cc1,29.4 µM,37.6 µM,15.4 µM,> 100 µM,16.2 µM,37.4 µM,31.7 µM,23.7 µM,25.4 µM,76 µM
Cc1n[nH]c(=O)n1/N=C\c1ccccc1,> 100 µM,> 100 µM,> 100 µM,> 100 µM,> 100 µM,> 100 µM,> 100 µM,> 100 µM,> 100 µM,50.9 µM
Cc1cc(S(=O)(=O)Nc2nc3ccccc3nc2-c2ccc(Cl)cc2)c(S)cc1Cl,41.4 µM,40.5 µM,44.2 µM,44.1 µM,28.2 µM,29.1 µM,34.3 µM,35.6 µM,56.7 µM,46.6 µM
COc1ccc(N=NC(=O)NC(CC(C)C)C(N)=O)cc1 (stereo not drawn),> 100 µM,> 31.6 µM,> 31.6 µM,> 100 µM,> 31.6 µM,> 100 µM,> 100 µM,> 31.6 µM,> 31.6 µM,> 31.6 µM
COc1ccc2c3c([nH]c2c1)CCN(CCCC(=O)c1ccc(F)cc1)C3,27 µM,25 µM,31.7 µM,33.2 µM,32.2 µM,25.8 µM,25.6 µM,35.1 µM,29.7 µM,28.5 µM
CC(=O)Oc1c2c(c3n(c1=O)CCCC3)C(=O)N(c1ccccc1)C2=O,> 100 µM,> 100 µM,–,> 100 µM,> 100 µM,> 100 µM,> 100 µM,> 100 µM,> 100 µM,> 100 µM
COc1ccc(C2C(C#N)=C(S)N(C3OC(COC(C)=O)C(OC(C)=O)C(OC(C)=O)C3OC(C)=O)C(c3ccccc3)=C2C(C)=O)cc1 (stereo not drawn),> 100 µM,> 100 µM,> 100 µM,> 100 µM,> 100 µM,–,> 100 µM,> 100 µM,> 100 µM,> 100 µM
C[C@@H]1C(=O)C[C@H]2C(C)(C)CCC[C@]2(C)[C@@]1(O)CCc1ccoc1,> 100 µM,> 100 µM,> 100 µM,> 100 µM,> 100 µM,> 100 µM,> 100 µM,> 100 µM,> 100 µM,> 100 µM
O=C1CC[C@@]2(O)[C@H]3Cc4ccc(-c5ccccc5)c5c4[C@@]2(CCN3CC2CC2)[C@H]1O5,29.9 µM,32 µM,31.3 µM,37.3 µM,> 100 µM,52.3 µM,46.7 µM,32.9 µM,72.4 µM,23.7 µM
Cc1cccc(N2C(=O)C3c4[nH]c5ccccc5c4C4CCC(C(C)(C)C)CC4C3C2=O)c1 (stereo not drawn),28 µM,21.2 µM,44.6 µM,> 100 µM,25.7 µM,31.4 µM,24.8 µM,30.7 µM,30.5 µM,26.3 µM
CC(C)(C)c1cc(OCc2nn3c(Cc4ccccc4)nnc3s2)c(Cl)cc1OCc1nn2c(Cc3ccccc3)nnc2s1,36.6 µM,> 100 µM,93.1 µM,97.9 µM,> 100 µM,> 100 µM,> 100 µM,> 100 µM,> 100 µM,> 100 µM

SMILES,TGI [1],TGI [2],TGI [3],TGI [4],TGI [5],TGI [6],TGI [7],TGI [8],TGI [9],TGI [10]
CCCCCCCCCCCCCCC(O)C[N+](C)(CCO)CCO (stereo not drawn),7.54 µM,23.8 µM,26.7 µM,2.71 µM,17 µM,42.6 µM,4.31 µM,22.8 µM,21.5 µM,4.36 µM
Nc1nc(Cl)cc(NC2(CO)CCC2)n1,> 100 µM,> 100 µM,> 100 µM,> 100 µM,> 100 µM,> 100 µM,> 100 µM,> 100 µM,> 100 µM,> 100 µM
CSc1ccn(C2CC(F)C(CO)O2)c(=O)n1 (stereo not drawn),> 100 µM,> 100 µM,> 100 µM,> 100 µM,> 100 µM,> 100 µM,> 100 µM,> 100 µM,> 100 µM,> 100 µM
Cc1cc(S(=O)(=O)Nc2nnc3cnc4ccccc4n23)c(S)cc1Cl,> 100 µM,> 100 µM,> 100 µM,> 100 µM,> 100 µM,> 100 µM,> 100 µM,> 100 µM,> 100 µM,> 100 µM
NC1=Nc2cc(Cl)ccc2Sc2nc3ccccc3n21,> 100 µM,–,> 100 µM,7.49 µM,> 100 µM,> 100 µM,> 100 µM,> 100 µM,> 100 µM,> 100 µM
Cc1c(N=Nc2ccccc2)c(C)n(C2OC(CO)C(O)C(O)C2O)c(=S)c1C#N (stereo not drawn),> 100 µM,46.2 µM,> 100 µM,> 100 µM,> 100 µM,–,78.6 µM,> 100 µM,> 100 µM,> 100 µM
O=c1[nH]cc(Cl)c(=O)[nH]1,> 100 µM,> 100 µM,> 100 µM,> 100 µM,> 100 µM,> 100 µM,> 100 µM,> 100 µM,> 100 µM,> 100 µM
Nc1ncn2c(n1)nc1ccccc12,> 100 µM,> 100 µM,> 100 µM,> 100 µM,> 100 µM,> 100 µM,> 100 µM,> 100 µM,> 100 µM,> 100 µM
O=C(Nc1cccc([N+](=O)[O-])c1)c1n[nH]n(-c2cccc([N+](=O)[O-])c2)c1=O,> 100 µM,> 100 µM,> 100 µM,> 100 µM,–,> 100 µM,> 100 µM,> 100 µM,> 100 µM,> 100 µM
CC(=O)Oc1ccc2c(c1)CC[C@@H]1C2[C@@H](O[N+](=O)[O-])C[C@@]2(C)C1CC[C@@H]2O[N+](=O)[O-] (stereo partly drawn),28.8 µM,23.2 µM,25.9 µM,53.6 µM,33.3 µM,26.6 µM,22.9 µM,28.2 µM,29.5 µM,23.7 µM
Clc1cccc(NN=Nc2ccc(-c3nc4ccccc4s3)cc2)c1,88.2 µM,> 100 µM,> 100 µM,27.2 µM,> 100 µM,> 100 µM,> 100 µM,80.1 µM,62.2 µM,82.8 µM
CCOC(=O)C(Cc1ccc(OC(=O)OC(C)(C)C)cc1)NC(=O)OC(C)(C)C (stereo not drawn),> 100 µM,> 100 µM,54.3 µM,80.1 µM,> 100 µM,> 100 µM,> 100 µM,> 100 µM,> 100 µM,> 100 µM
COc1cc2c3c(n(C)c(=O)c2cc1OC)-c1cc2c(cc1/C3=C\CCCI)OCO2,> 100 µM,> 100 µM,> 100 µM,> 100 µM,> 100 µM,> 100 µM,> 100 µM,> 100 µM,> 100 µM,> 100 µM
CCCCCCCCCCCC[C@@H](O)[C@H]1CCC([C@H](O)CCCCC(=O)CCCCCCCC2=C[C@H](C)OC2=O)O1 (stereo partly drawn),> 50 µM,> 50 µM,> 50 µM,> 28.8 µM,> 50 µM,> 50 µM,> 50 µM,> 50 µM,> 50 µM,> 30.2 µM
Cc1nc(C)c(N2CCNCC2)c(=O)[nH]1,> 100 µM,> 100 µM,> 100 µM,> 100 µM,> 100 µM,> 100 µM,> 100 µM,> 100 µM,> 100 µM,> 100 µM
O=c1ccn(C2OC(CO)C(O)C2F)c(=O)n1Cc1ccccc1 (stereo not drawn),> 100 µM,> 100 µM,> 100 µM,> 100 µM,–,> 100 µM,> 100 µM,> 100 µM,> 100 µM,> 100 µM
CC(=O)Oc1c(N2CCCCC2)c(C(=O)c2ccccc2)c(O)c2ccn(N(C)C)c12,31.8 µM,22.5 µM,31.2 µM,29.5 µM,58.2 µM,31.2 µM,33.7 µM,35.3 µM,33.7 µM,48.4 µM

# From PubChem BioAssay (NCI)
